Measurements: ChEMBL document CHEMBL3046894, “Synthesis and Herbicidal Activity of Pyrimidinyl Salicylic and Thiosalicylic Acids” (J Pestic Sci, 1996)

How the values were obtained:
[1] = test system: Zea mays; assay: Pre-emergence phytotoxicity against Zea mays (maize) assessed as mortality at 1.6 g a.i/10 a; type: organism-based; conditions: in vivo, other
[2] = test system: Glycine max; assay: Post-emergence phytotoxicity against Glycine max (soybean) assessed as mortality at 6.3 g a.i/10 a applied 11 days after germination as foliar spray; type: organism-based; conditions: in vivo, other, 264 h
[3] = test system: Ipomoea lacunosa; assay: Pre-emergence herbicidal activity against Ipomoea lacunosa assessed as mortality at 6.3 g a.i/10 a; type: functional
[4] = Pre-emergence phytotoxicity against Gossypium hirsutum (cotton) assessed as mortality at 6.3 g a.i/10 a; type: organism-based; conditions: in vivo, 6.3 g a.i/10 a, read-out: Activity
[5] = test system: Abutilon theophrasti; assay: Pre-emergence herbicidal activity against Abutilon theophrasti (velvetleaf) assessed as mortality at 6.3 g a.i/10 a; type: functional
[6] = test system: Gossypium hirsutum; assay: (§1) Post-emergence phytotoxicity against Gossypium hirsutum (cotton) assessed as mortality at 6.3 g a.i/10 a applied 11 days after germination as foliar spray; type: organism-based; conditions: in vivo, other, 264 h
[7] = test system: Zea mays; assay: (§2) Post-emergence phytotoxicity against Zea mays (maize) assessed as mortality at 1.6 g a.i/10 a applied 11 days after germination as foliar spray; type: organism-based; conditions: in vivo, other, 264 h
[8] = (§3) Pre-emergence phytotoxicity against Glycine max (soybean) assessed as mortality at 1.6 g a.i/10 a; type: organism-based; conditions: in vivo, 1.6 g a.i/10 a, read-out: Activity
[9] = test system: Abutilon theophrasti; assay: Post-emergence herbicidal activity against Abutilon theophrasti (velvetleaf) assessed as mortality at 6.3 g a.i/10 a applied 11 days after germination as foliar spray; type: functional; conditions: 264 h
[10] = test system: Abutilon theophrasti; assay: Post-emergence herbicidal activity against Abutilon theophrasti (velvetleaf) assessed as mortality at 1.6 g a.i/10 a applied 11 days after germination as foliar spray; type: functional; conditions: 264 h
[11] = test system: Abutilon theophrasti; assay: Pre-emergence herbicidal activity against Abutilon theophrasti (velvetleaf) assessed as mortality at 1.6 g a.i/10 a; type: functional
[12] = test system: Glycine max; assay: Post-emergence phytotoxicity against Glycine max (soybean) assessed as mortality at 1.6 g a.i/10 a applied 11 days after germination as foliar spray; type: organism-based; conditions: in vivo, other, 264 h
[13] = test system: Echinochloa crus-galli; assay: Pre-emergence herbicidal activity against Echinochloa crus-galli (barnyard grass) assessed as mortality at 6.3 g a.i/10 a; type: functional
[14] = test system: Zea mays; assay: Pre-emergence phytotoxicity against Zea mays (maize) assessed as mortality at 6.3 g a.i/10 a; type: organism-based; conditions: in vivo, other
[15] = test system: Gossypium hirsutum; assay: (§4) Post-emergence phytotoxicity against Gossypium hirsutum (cotton) assessed as mortality at 1.6 g a.i/10 a applied 11 days after germination as foliar spray; type: organism-based; conditions: in vivo, other, 264 h
[16] = (§5) Pre-emergence phytotoxicity against Glycine max (soybean) assessed as mortality at 6.3 g a.i/10 a; type: organism-based; conditions: in vivo, 6.3 g a.i/10 a, read-out: Activity
[17] = test system: Ipomoea lacunosa; assay: Pre-emergence herbicidal activity against Ipomoea lacunosa assessed as mortality at 1.6 g a.i/10 a; type: functional
[18] = test system: Echinochloa crus-galli; assay: Post-emergence herbicidal activity against Echinochloa crus-galli (barnyard grass) assessed as mortality at 1.6 g a.i/10 a applied 11 days after germination as foliar spray; type: functional; conditions: 264 h
[19] = test system: Gossypium hirsutum; assay: Pre-emergence phytotoxicity against Gossypium hirsutum (cotton) assessed as mortality at 1.6 g a.i/10 a; type: organism-based; conditions: in vivo, other
[20] = test system: Xanthium strumarium; assay: Pre-emergence herbicidal activity against Xanthium strumarium (cocklebur) assessed as mortality at 1.6 g a.i/10 a; type: functional
[21] = as §1; type: organism-based; conditions: in vivo, 6.3 g a.i/10 a
[22] = as §2; type: organism-based; conditions: in vivo, 1.6 g a.i/10 a
[23] = test system: Glycine max; assay: as §3; type: organism-based; conditions: in vivo, other
[24] = as §4; type: organism-based; conditions: in vivo, 1.6 g a.i/10 a
[25] = test system: Glycine max; assay: as §5; type: organism-based; conditions: in vivo, other

With CCOc1cccc(Sc2nc(OC)cc(OC)n2)c1C(=O)O the Activity [1] was “Non-toxic”, the Activity [2] was “Toxic” and the Activity [3] was under 50%. For the same molecule, the mortality [4] was under 50%, the Activity [5] was under 50% and the Activity [6] was “Toxic”. For the same molecule, the Activity [7] was “Toxic”, the mortality [8] was under 50% and the mortality at 63 g/ha [9] was over 90%. For the same molecule, the mortality at 16 g/ha [10] was over 90%, the Activity [11] was under 50% and the Activity [12] was “Toxic”. For the same molecule, the Activity [13] was over 90%, the Activity [14] was “Toxic” and the Activity [15] was “Toxic”. It also gave a mortality [16] of under 50%, an Activity [17] of under 50% and a mortality at 16 g/ha [18] of under 5%. It also gave an Activity [19] of under 50%.
For COc1cc(OC)nc(Sc2cccc(I)c2C(=O)O)n1, the Activity [1] was “Toxic”, the Activity [2] was “Toxic” and the mortality [4] was under 50%. For the same molecule, the Activity [20] was under 50%, the mortality at 264 h [21] was under 5% and the mortality at 264 h [22] was over 90%. The Activity [23] was “Non-toxic”, the mortality at 63 g/ha [9] was over 90% and the Activity [12] was “Toxic”. For the same molecule, the Activity [14] was over 90%, the mortality at 264 h [24] was under 5% and the Activity [25] was “Toxic”. The Activity [17] was under 50% and the Activity [19] was under 50%.
